{
  "source": "patent US9688624B2",
  "about": "“DP2 antagonist and uses thereof” (Brickell Biotech, Inc., priority 2010, dated 2017)",
  "key": {"[1]": {"test": "Thermodynamic aqueous solubility", "format": "physicochemical", "description": "Example 6: Thermodynamic Aqueous Solubility\nAqueous solubility was determined by suspending sufficient compound in water to give a maximum final concentration of ≧20 mg·ml-1 of the parent free-form of the compound. The suspension was equilibrated at 25° C. for 24 hours then the pH was measured. The suspension was then filtered through a glass fibre C filter into a 96 well plate unless stated otherwise. The filtrate was then diluted by a factor of 101. Quantitation was by HPLC with reference to a standard solution of approximately 0.25 mg·ml^−1 in DMSO. Different volumes of the standard, diluted and undiluted sample solutions were injected. The solubility was calculated using the peak areas determined by integration of the peak found at the same retention time as the principal peak in the standard injection.\nAnalysis was performed on an Agilent HP1100 series system equipped with a diode array detector and using ChemStation software vB.02.01-SR1."}, "[2]": {"test": "Gravimetric vapour sorption (GVS)", "format": "physicochemical", "details": "25° C.", "description": "Example 5: Gravimetric Vapour Sorption (GVS)\nSorption isotherms were obtained using a SMS DVS Intrinsic moisture sorption analyzer, controlled by SMS Analysis Suite software. The sample temperature was maintained at 25° C. by the instrument controls. The humidity was controlled by mixing streams of dry and wet nitrogen, with a total flow rate of 200 ml·min-1. The relative humidity was measured by a calibrated Rotronic probe (dynamic range of 1.0-100% RH), located near the sample. The weight change, (mass relaxation) of the sample as a function of % RH was constantly monitored by the microbalance (accuracy ±0.005 mg). Typically 5-20 mg of sample was placed in a tared mesh stainless steel basket under ambient conditions. The sample was loaded and unloaded at 40% RH and 25° C. (typical room conditions). A moisture sorption isotherm was performed as outlined below (2 scans giving 1 complete cycle). The standard isotherm was performed at 25° C. at 10% RH intervals over a 0.5-90% RH range"}, "[3]": {"system": "DK-PGD2-induced peripheral blood leukocyte influx", "test": "Guinea pig IV DK-PGD2-induced peripheral blood leukocyte influx", "format": "in vivo", "details": "for EC50 / ED50: Cavia porcellus, Leukocyte, calculated; for EC50: iv, plasma concentration; for ED50: oral", "description": "Example 19: Guinea Pig IV-DKPGD2-Induced Peripheral Blood Leukocyte to Influx\nThe ability of Compound 2 to inhibit leukocyte migration in vivo was assessed using intravenous injection of 13,14-dihydro-15-keto-prostaglandin D2 (DK-PGD2). Methods were adapted from those detailed Shichijo et al., 2003, Journal of Pharmacology and Experimental Therapeutics, 307:518-525. Male Hartley guinea pigs were immunized with ovalbumin (OVA) on day 0 by intraperitoneal (IP) injection of 1 ml of a 100 μg/ml solution in Imject Alum. They were then used in the DK-PGD2 procedure between days 14 and 21. Subjects were randomly assigned to receive either vehicle (0.5% methyl cellulose, 4 ml/kg, oral (PO)) or one of three to four doses of test compound. Two hours or eighteen hours after dosing, animals were anesthetized with ketamine and challenged with DK-PGD2 (1 mg/kg, IV). Thirty minutes after IV administration, blood was collected via the marginal ear vein into EDTA tubes for cell analysis. 10 μl blood was lysed in 190 μl water followed by a further 20-fold dilution in PBS. A 10 μl fraction was mixed with equal parts trypan blue and loaded on a hemocytometer. Cells were visualized at a magnification of 40× using a LabPro light microscope and totals counted and recorded. Cells are expressed as total cells×10^8 per ml of blood Inhibition of this effect is determined statistically using Graphpad prism."}, "[4]": {"test": "Plasma concentrations in guinea pig DK-PGD2 leukocyte influx study", "format": "in vivo", "details": "Hartley; for concentration at 18.5 h: read-out: concentration of Compound 1 in plasma", "description": "In the 2 hr study, intravenous DK-PGD2 (IV DK-PGD2) increased the number of peripheral blood leukocytes, mainly lymphocytes, which likely reflects recruitment from bone marrow. […] Plasma concentrations taken 2.5 hours following oral Compound 2 were 45 nM±36 and 120 nM±46 in the 10 mg/kg and 30 mg/kg dose groups, respectively.\nIn the 18 hr guinea pig study, a significant increase in peripheral blood leukocytes was also observed following IV DK-PGD2 challenge. […] The concentration of Compound 1 in plasma recovered 18.5 hours following oral dose was 4 nM±7, 21 nM±19 and 17 nM±10 in the 10 mg/kg, 30 mg/kg and 100 mg/kg dose groups, respectively."}, "[5]": {"test": "Phase I single ascending dose study, safety and tolerability", "format": "in vivo, human", "details": "humans, capsule, 5 to 500 mg single doses", "source_text": "To assess: (1) the safety and tolerability of single and multiple doses of Compound 2 following oral administration; and (2) the pharmacokinetics (PK) of Compound 2 after single and multiple doses; and (3) the effects of the pharmacodynamic (PD) responses in healthy subjects to Compound 2 as measured by a PGD2-induced eosinophil shape change assay (ESC).\nThe Single Ascending Dose (SAD) study will include 6 cohorts with 8 subjects each, 6 receiving the active treatment and 2 receiving the placebo. The SAD study will explore doses of 5, 15, 50, 150, 300 and 500 mg/day. Compound 2 (Pattern 1) is administered as API in a Capsule, prepared on site at the clinical pharmacy (see Example 10). Safety monitoring will include: a “how do you feel” (HDYF) question, adverse events reporting, physical examinations, vital signs, ECG's, and a biological assessment (clinical chemistry, hematology and urinalysis). The decision to escalate to the next dose level will be based on the results of medical monitoring, and a blinded interim analysis of pharmacokinetic parameters (AUC, Cmax) and pharmacodynamic responses. Doses may be adjusted based on the occurrence of adverse events. Subjects will be followed on site for 72 hours after dose administration."}, "[6]": {"test": "Plasma concentrations in mouse smoke model", "format": "in vivo", "description": "BALB/c mice were exposed to the smoke of 7 unfiltered cigarettes per day via whole-body exposure on days 0, 1, and 2 for a total of 1.75 hours per day. […] The plasma concentrations for Compound 1 measured at trough were 85 and 588 nM at 10 mg/kg and 50 mg/kg, respectively."}, "CYP3A4": {"molecular_target": "CYP3A4 (Homo sapiens (Human), UniProt P08684)", "details": "human hepatocytes, 10 μM"}, "[7]": {"details": "water, listed as Amorphous Compound 2, sodium salt"}},
  "note": "Where a name gives a salt, the structure may show the parent alone. Read-outs that look alike come from different tables or passages of the source.",
  "data": [
    {"smiles": "COc1ccc(CC(=O)O)cc1Oc1ccc(NC(=O)C(C)(C)C)cc1CSC(C)(C)C", "note": "[Compound 2, 2-(3-(2-((tert-butylthio)methyl)-4-(2,2-dimethyl-propionylamino)phenoxy)-4-methoxyphenyl)acetic acid, sodium salt]", "values": [
      {"measurement": "Solubility mg/ml Free Base equivalent", "setting": "[1]; test solvent pH 1.5, 25° C., 24 hours, listed as Compound 2 Pattern 1, sodium salt", "value": 0.0058, "unit": "mg/mL"},
      {"measurement": "pH of Unfiltered Saturated solution", "setting": "[1]; test solvent pH 1.5, listed as Compound 2 Pattern 1, sodium salt", "value": 2.73},
      {"measurement": "Solubility mg/ml Free Base equivalent", "setting": "[1]; test solvent pH 4.0, 25° C., 24 hours, listed as Compound 2 Pattern 1, sodium salt", "value": 0.0023, "unit": "mg/mL"},
      {"measurement": "pH of Unfiltered Saturated solution", "setting": "[1]; test solvent pH 4.0, listed as Compound 2 Pattern 1, sodium salt", "value": 4.67},
      {"measurement": "Solubility mg/ml Free Base equivalent", "setting": "[1]; test solvent pH 5.0, 25° C., 24 hours, listed as Compound 2 Pattern 1, sodium salt", "value": 0.04, "unit": "mg/mL"},
      {"measurement": "pH of Unfiltered Saturated solution", "setting": "[1]; test solvent pH 5.0, listed as Compound 2 Pattern 1, sodium salt", "value": 5.88},
      {"measurement": "Solubility mg/ml Free Base equivalent", "setting": "[1]; test solvent pH 6.5, 25° C., 24 hours, listed as Compound 2 Pattern 1, sodium salt", "value": 4.1, "unit": "mg/mL"},
      {"measurement": "pH of Unfiltered Saturated solution", "setting": "[1]; test solvent pH 6.5, listed as Compound 2 Pattern 1, sodium salt", "value": 7.06},
      {"measurement": "Solubility mg/ml Free Base equivalent", "setting": "[1]; test solvent pH 7.4, 25° C., 24 hours, listed as Compound 2 Pattern 1, sodium salt", "value": 18.0, "unit": "mg/mL"},
      {"measurement": "pH of Unfiltered Saturated solution", "setting": "[1]; test solvent pH 7.4, listed as Compound 2 Pattern 1, sodium salt", "value": 7.97},
      {"measurement": "Thermodynamic solubility in water", "setting": "[1]; [7]", "value": "> 20000", "unit": "µg/mL"},
      {"measurement": "pH of unfiltered solution", "setting": "[1]; [7]", "value": 8.18},
      {"measurement": "hygroscopicity (GVS observation)", "setting": "[2]; listed as Amorphous Compound 2, sodium salt", "value": "deliquesced"},
      {"measurement": "GVS mass change", "setting": "[2]; at 80% R.H.", "value": "> 30", "unit": "% w/w"},
      {"measurement": "% inhibition of DK-PGD2-induced peripheral blood leukocyte increase", "setting": "[3]; 2 hr study, 10 mg/kg oral", "value": "19 (±23) %"},
      {"measurement": "% inhibition of DK-PGD2-induced peripheral blood leukocyte increase", "setting": "[3]; 2 hr study, 30 mg/kg oral", "value": "107 (±9) %"},
      {"measurement": "% inhibition of peripheral blood leukocyte numbers", "setting": "[3]; 18 hr study, 10 mg/kg oral", "value": "29 (±14) %"},
      {"measurement": "% inhibition of peripheral blood leukocyte numbers", "setting": "[3]; 18 hr study, 30 mg/kg oral", "value": "50 (±8) %"},
      {"measurement": "% inhibition of peripheral blood leukocyte numbers", "setting": "[3]; 18 hr study, 100 mg/kg oral", "value": "77 (±12) %"},
      {"measurement": "EC50", "setting": "[3]; 2 hr study, read-out: EC50 associated with ED50", "value": 50, "unit": "nM"},
      {"measurement": "ED50", "setting": "[3]; 2 hr study", "value": 11, "unit": "mg/kg"},
      {"measurement": "ED50", "setting": "[3]; 18 hr study", "value": 63, "unit": "mg/kg"},
      {"measurement": "concentration at 2.5 h", "setting": "[4]; 2.5 hours after oral 10 mg/kg", "value": 45, "unit": "nM"},
      {"measurement": "concentration at 2.5 h", "setting": "[4]; 2.5 hours after oral 30 mg/kg", "value": 120, "unit": "nM"},
      {"measurement": "tolerability", "setting": "[5]", "value": "well tolerated"}
    ]},
    {"smiles": "COc1ccc(CC(=O)O)cc1Oc1ccc(NC(=O)C(C)(C)C)cc1CSC(C)(C)C", "note": "[Compound 1, 2-(3-(2-((tert-butylthio)methyl)-4-(2,2-dimethyl-propionylamino)phenoxy)-4-methoxyphenyl)acetic acid]", "values": [
      {"measurement": "Solubility mg/ml Free Base equivalent", "setting": "[1]; test solvent pH 1.5, 25° C., 24 hours, listed as Compound 1 Pattern 1", "value": 0.013, "unit": "mg/mL"},
      {"measurement": "Solubility mg/ml Free Base equivalent", "setting": "[1]; test solvent pH 4.0, 25° C., 24 hours, listed as Compound 1 Pattern 1", "value": 0.0059, "unit": "mg/mL"},
      {"measurement": "solubility at 24 h", "setting": "[1]; test solvent pH 5.0, 25 °C, pH 5, aqueous buffer, thermodynamic from solid, test solvent pH 5.0, 25° C., 24 hours, read-out: Solubility mg/ml Free Base equivalent", "value": 0.027, "unit": "mg/mL"},
      {"measurement": "Solubility mg/ml Free Base equivalent", "setting": "[1]; test solvent pH 6.5, 25° C., 24 hours, listed as Compound 1 Pattern 1", "value": 0.39, "unit": "mg/mL"},
      {"measurement": "Solubility mg/ml Free Base equivalent", "setting": "[1]; test solvent pH 7.4, 25° C., 24 hours, listed as Compound 1 Pattern 1", "value": 7.6, "unit": "mg/mL"},
      {"measurement": "Thermodynamic solubility in water", "setting": "[1]; water, listed as Pattern 1 of Compound 1", "value": 6200, "unit": "µg/mL"},
      {"measurement": "EC50", "setting": "[3]; 18 hr study, read-out: 18-hr EC50, inhibition of IV-DK-PGD2-induced leukocyte influx", "value": 18, "unit": "nM"},
      {"measurement": "concentration at 18.5 h", "setting": "[4]; 18.5 hours after oral 10 mg/kg", "value": 4, "unit": "nM"},
      {"measurement": "concentration at 18.5 h", "setting": "[4]; 18.5 hours after oral 30 mg/kg", "value": 21, "unit": "nM"},
      {"measurement": "concentration at 18.5 h", "setting": "[4]; 18.5 hours after oral 100 mg/kg", "value": 17, "unit": "nM"},
      {"measurement": "plasma concentration for Compound 1 at trough", "setting": "[6]; 10 mg/kg PO daily", "value": 85, "unit": "nM"},
      {"measurement": "plasma concentration for Compound 1 at trough", "setting": "[6]; 50 mg/kg PO daily", "value": 588, "unit": "nM"},
      {"measurement": "induction of CYP3A4", "setting": "CYP3A4", "value": "not a strong inducer"}
    ]}
  ]
}
